Key:
[1] = Emission profile of IRDye 700DX (700 nm range) after ultrasound: stability of the dye; format: physicochemical; conditions: 1MHz ultrasonic wave at 3 W/cm^2, 15 minutes
[2] = Sonoactivation of IRDye 700DX solution; singlet oxygen detected with Sensor Green indicator; conditions: ultrasonic wave at 1MHz and 2.0W/cm^2
Source text: As shown therein, there is generation of singlet oxygen during the sonodynamic process. By applying the ultrasonic wave at 1MHz and 2.0W/cm^2 to the agent IRDye® 700DX, the enhancement of the emission of the singlet oxygen indicator, Sensor Green (SG), indicates the occurrence of a sonodynamic effects. Singlet oxygen was detected.
Both sonosensitization, also known as sonodynamic activation or sonoactivation, and photosensitization, also known as photodynamic activation or photoactivation, trigger reactive oxidation species (ROS) or single oxygen (^1O2) that results in cell death via either apoptosis or necrosis, and thus sonodynamic therapy (SDT) or photodynamic therapy (PDT), respectively.

[3] = Sonoactivation of IRDye 700DX solution; reactive oxygen species detected with dihydrorhodamine 123 (DHRd123) indicator
Source text: The results illustrate that ultrasonic waves enhance the emission of a reactive oxygen species indicator, which indicates the occurrence of one of the sonodynamic effects generated by applying ultrasonic energy to IRDye® 700DX under the experimental conditions. In this example, the concentration of IRDye® 700DX was 1 μm.
The experiment included dihydroxy rhodamine 123 to detect the presence of reactive oxygen species. Reactive oxygen species were detected.
The results illustrate a continuous treatment of a 1 MHz ultrasonic wave. […] The experiment included dihydroxy rhodamine 123 to detect the presence of reactive oxygen species. Reactive oxygen species were detected. […]

A431 cells = assay: VB-48 Assay: vitality, viability and necrosis after probe labeling and irradiation; format: cell-based; conditions: irradiated 32 J/cm^2; RGD-700DX 0.5 μM, EGF-700DX 0.5 μM, 700DX NHSe 5 μM, Pan-700DX ~0.1 μM; 24 hours post treatment
Description: Briefly, A431 cells were labeled with respective probes for specific treatments (listed below); cells were rinsed and evaluated for labeling. The test include the following treatments: […], treatments 3-4 of EGF-IRDye® 700DX at 0.5 μM and radiation, treatments 5-6 of IRDye® 700DX NHSe at 5 μM and radiation, treatments 7-8 of panitumumab-IRDye® 700DX at about 0.1 μM and radiation, treatment 9 of a negative control with no probe and no irradiation, and treatment 10 of RGD-IRDye® 700DX and no irradiation. The probes were incubated for about 10 minutes and with a longer period of about 20 minutes for the RGD probe.

[4] = continuous treatment of a 1 MHz ultrasonic wave

C[Si](C)(CCC[N+](CCCS(=O)(=O)[O-])(CCCS(=O)(=O)[O-])CCCS(=O)(=O)[O-])O[Si]1(O[Si](C)(C)CCC[N+](CCCS(=O)(=O)[O-])(CCCS(=O)(=O)[O-])CCCS(=O)(=O)[O-])n2c3c4ccccc4c2N=C2N=C(N=c4c5ccccc5c(n41)=NC1=NC(=N3)c3ccccc31)c1cccc(OCCCOC(=O)NCCCCCC(=O)ON3C(=O)CCC3=O)c12.[Na+].[Na+].[Na+].[Na+] (centres unmarked) [IRDye® 700DX]
chemical structure of the dye after sonodynamic activation (emission profile at 700 nm range) [1]: did not decompose | generation of singlet oxygen (Sensor Green), FIG. 5 [2]: detected | Primary Sonodynamic Effect Detected ([3]; 700DX 1 uM with DHRd123, no sonodynamic activation (placebo), 7 min): None | Primary Sonodynamic Effect Detected ([3]; 700DX 1 uM with DHRd123, no sonodynamic activation (placebo), 15 min): Minimal | Primary Sonodynamic Effect Detected ([3]; 700DX with DHRd123, 1 MHz, 2.2 W/cm^2, 7 + 7 min, duty cycle 20%, 370 J/cm^2): ROS+ | Primary Sonodynamic Effect Detected ([3]; 700DX with DHRd123, 1 MHz, 2.2 W/cm^2, 7 min, duty cycle 20%, 185 J/cm^2): ROS | Primary Sonodynamic Effect Detected ([3]; 700DX with DHRd123, 1 MHz, 2.2 W/cm^2, 15 min, duty cycle 20%, 396 J/cm^2): ROS++ | Primary Sonodynamic Effect Detected ([3]; 700DX with DHRd123, 3.3 MHz, 3 W/cm^2, 7 min, duty cycle 20%, 252 J/cm^2): ROS | Primary Sonodynamic Effect Detected ([3]; 700DX with DHRd123, 3.3 MHz, 3 W/cm^2, 15 min, duty cycle 20%, 540 J/cm^2): ROS++ | emission of the reactive oxygen species indicator (FIG. 3) ([3]; IRDye 700DX 1 μm, 1MHz ultrasonic wave at 3 W/cm^2, 15 minutes): large increase in the emission of the indicator | emission peak of the reactive oxygen species indicator (FIG. 3) ([3]; IRDye 700DX 1 μm, duration 7 minutes): not as enhanced as with 15 minutes duration | presence of reactive oxygen species (dihydroxy rhodamine 123), FIG. 3 ([3]; IRDye 700DX 1 μm, ultrasonic wave 7 or 15 minutes): detected | effect of increasing the pulse duration on reactive oxygen species (FIG. 4) [3, 4]: increases the generation of reactive oxygen species | presence of reactive oxygen species (dihydroxy rhodamine 123), FIG. 4 [3, 4]: detected

COC(=O)c1ccccc1C1c2ccc(N)cc2Oc2cc(N)ccc21 [Sensitizer DHRd123 Solution, dihydrorhodamine 123, reference compound]
Primary Sonodynamic Effect Detected ([3]; DHRd123 solution 2.5 uM alone, no IRDye 700DX, no sonodynamic activation): None | Primary Sonodynamic Effect Detected ([3]; DHRd123 solution alone, no IRDye 700DX, 3.3 MHz, 3 W/cm^2, 15 min, duty cycle 20%, 540 J/cm^2): ROS

EGF-700DX
Cells/mL (A431 cells): 3.4 × 10^5 Cells/mL | Low % Vitality (A431 cells): 19%

Pan-700DX: panitumumab antibody labeled with IRDye 700DX
% Healthy (A431 cells): 15.0% | % Necrotic (A431 cells): 70% | Cells/mL (A431 cells): 1.2 × 10^5 Cells/mL | Est % Viability (A431 cells): 30-40% | Low % Vitality (A431 cells): 15%
